Laboratory results reported in patent US6231885A, “Composition for controlled and sustained transdermal administration” (Permatec Technologie AG, priority 1997, dated 2001).
Entries after “also recorded” stand apart in the source; their conditions may differ.

Assay: In vitro enhancer release, paddle over disk method (apparatus 5, USP 23)
Assay type: physicochemical
Conditions: in words, in vitro and in vivo results
Method: The release of lauric acid and oleic acid was analyzed using paddle over disk method (apparatus 5, USP 23, Drug Release 724).
FIG. 1 schematically shown the apparatus mentioned before. In these experiments we have determined the release profiles of lauric acid and oleic acid from transdermal patches, measuring the remaining drug (by means of HPLC techniques) in samples taken at different time points.
The examples used were: Example 1; Example 2 and Example 3.
The dissolution conditions used were: paddle speed: 50 rpm; temperature: 32° C.; dissolution medium: aqueous solution of sodium dodecyl sulphate 0.3%; volume: 500 ml; sample program: 0.5; 1.0; 2.0; 4.0; 8.0 and 24 h.

| SMILES | Release from the adhesive matrix | Release from the adhesive matrix (listed as lauric acid) |
| --- | --- | --- |
| CCCCCCCCCCCC(=O)O [Lauric acid] | rapid release | a great proportion of the amount of lauric acid is delivered at early times |
| CCCCCCCC/C=C\CCCCCCCC(=O)O [oleic acid] | slow release; also recorded: delivered in small amount and is prone to remain in the adhesive monolithic matrix | – |
